Measurements published in patent US20180000778A1, “SMALL MOLECULE ANTAGONISTS OF DUSP5 AND METHODS OF USE” (THE MEDICAL COLLEGE OF WISCONSIN, INC., priority 2015, published 2018).

Test system: pERK levels in HUVEC cells
Experiment: pERK levels in HUVEC cells, western blot
Type: cell-based, Human
Conditions: HUVECs incubated 2 hours, pERK relative to total ERK; Na3VO4 at 200 μM
Description: Cell Culture and Western Blots.
Human Umbilical Vein Endothelial Cells (HUVECs) were maintained in EBM2 media (Lonza, CC-3156) supplemented with a combined serum and growth factor kit (Lonza, CC-4176). Cells were incubated with the indicated concentrations of drug for 2 h and lysed with RIPA buffer (Sigma, R0278) on ice. Cell lysates were cleared by centrifugation at 16,300×g for 30 min. The resulting supernatants were isolated and protein concentration determined by Lowry assay (DC protein assay, BioRad). 2× laemmli sample buffer was added to equal amounts of protein and separated by SDS-PAGE. The protein gels were transferred to polyvinylidene difluoride (PVDF) and immunoblotted using antibodies to phosphorylated ERK (Cell Signaling, #9106) and total ERK (Cell Signaling, #9102). Bound antibodies were visualized using horseradish peroxidase-linked anti-rabbit IgG, anti-mouse IgG (Cell Signaling Tech., #7074 and #7076) and ECL reagents (Thermo Scientific, 34080) according to the manufacturer's protocol.

For `O=S(=O)([O-])c1ccc2[nH]c3c(S(=O)(=O)[O-])cc(S(=O)(=O)[O-])cc3c2c1.[Na+].[Na+].[Na+]` [RR505, Carbazole-1,3,6-trisulfonic acid, Trisodium Salt], the “effect on pERK levels” value was “do not show biologically useful levels of potency”.
